Reference: patent US10071090B2 (priority 2014, dated 2018)

Experiments:
[1] = Solubility of oxymorphone in adhesive systems; assay type: physicochemical; conditions: in general
Text: A variety of adhesive systems, enhancers and cosolvents were employed to observe permeation differences within these systems. In general, solubility in acrylic adhesives (i.e. Duro-Tak®) was higher, and thus the driving force out of the patch would be relatively lower. Solubility in silicone adhesives was lower and thus provided a much higher driving constant out of the formulation and into the skin; however, due to the relatively lower solubility, a solubility enhancer that also assisted in solubilising the skin was utilized.

[2] = in vivo, po; cited from earlier work

SMILES | Solubility in silicone adhesives ([1]; compared with acrylic adhesives) | solubility in acrylic adhesives (i.e. Duro-Tak®) ([1]; compared with silicone adhesives) | Bioavailability [2]
CN1CC[C@]23c4c5ccc(O)c4O[C@H]2C(=O)CC[C@@]3(O)[C@H]1C5 [Oxymorphone] | lower | higher | 10%
COc1ccc2c3c1O[C@H]1C(=O)CC[C@H]4[C@@H](C2)N(C)CC[C@]314 [Hydrocodone] |  |  | 80%
COc1ccc2c3c1O[C@H]1C(=O)CC[C@@]4(O)[C@@H](C2)N(C)CC[C@]314 [Oxycodone] |  |  | 87%
